Data as given in patent US4001207A, “Tertiary-aliphatic amidazo compounds” (priority 1971, dated 1977).

Experiments:
[1] = Temperature of nitrogen/gas evolution, thermal stability; details: for temperature at which it begins to evolve nitrogen: begins to evolve nitrogen (slowly); for temperature at which it evolves nitrogen: evolves nitrogen at / above
[2] = cited from earlier work
[3] = background statement; cited from earlier work
[4] = Half-life of thermal decomposition; type: physicochemical
Protocol: (§1) It produces 179 cc. of gas per gram at 110° C. The following half-life data have been determined:
(§2) To a rapidly stirred mixture of 39.0 g. (0.2 m.) 1 -tert.-butylhydrazo-1-cyanocyclohexane, 200 ml. methylene chloride and 100 ml. water was added 14.3 g. […] The reaction was stirred an additional 15 mins. after the addition was complete. The methylene chloride layer was separated, washed twice with 50 ml. portions of saturated NaHCO3 solution, dried over anhydrous sodium sulfate, filtered and the methylene chloride evaporated on a rotating evaporator to obtain 35.0 g. of liquid product that assayed 86.5% by an ultra violet spectrophotometric analysis. Distillation gave a product, b.p. 71° C./1.2 mm. of Hg that assayed 97.6% as 1-tert.-butylazo- 1-cyanocyclohexane. The infrared spectrum was in accord with this structure. […] It produces 146 cc. of gas per gram at 130° C. The following half-life data have been determined:
The following half-life data have been determined by gas evolution technique using trichlorobenzene as the solvent: […]

[5] = Gas produced per gram on thermal decomposition; type: physicochemical; details: 110° C.
Protocol: as §1
as §2, with “C.” for “C. The following half-life data have been determined:”

[6] = Solubility in petroleum hydrocarbon and common organic solvents; type: physicochemical
[7] = Preliminary toxicological studies
Source text: The new compositions of the present invention eliminate these problems. Most of the new compositions are liquids and are soluble in petroleum hydrocarbon and most of the other common organic solvents. Thus, no dusting, metering, incorporating, mixing, and dispersing problems are encountered in using these new compositions. […] The less toxic nature of the new compositions coupled with their liquid and high solubility properties allows them to be used in many applications where IXA cannot be used.

SMILES: CC(C)(C)NNC1(C#N)CCCCC1 [1-tert.-butylhydrazo-1-cyanocyclohexane]
- stability on exposure to air ([1]; over extended periods): evolves HCN on exposure to air over extended periods

SMILES: CC(C)(C#N)N=NC(C)(C)C#N [2,2'-azobisisobutyronitrile]
- solubility in most of the organic common solvents ([2]; aromatic hydrocarbons, dioxane, alcohol, ether, carbon tetrachloride): very low or limited solubility
- solubility in petroleum hydrocarbon solvents [2]: insoluble
- toxicity [3]: toxic solid

SMILES: CC(C)(C)N=NC(C)(C)C#N [Example I, Alpha-(tert.-butylazo) isobutyronitrile]
- t 1/2 ([4]; 78.8° C.): 600 min
- t 1/2 ([4]; 90° C.): 120 min
- t 1/2 ([4]; 100° C.): 32.4 min
- t 1/2 ([4]; 110° C.): 12 min
- gas produced [5]: 179 cc. of gas per gram
- solubility in petroleum solvents [6]: soluble in petroleum solvents
- toxicity relative to IXA and its decomposition residue [7]: significantly less toxic

SMILES: CC(C)CC(C#N)(CC(C)C)N=NC(C)(C)C [Example VII, 4-tert.-butylazo-4-cyano-2,6-dimethylheptane]
- temperature at which it begins to evolve nitrogen [1]: 70 °C

SMILES: CC(C)(C)N=NC(C)(C#N)CCC(=O)O (stereo not drawn) [Example X, alpha-tert.-butylazo-alpha-methyl-gamma-carboxybutyronitrile]
- half-life ([4]; 75° C.): 11.0 h
- half-life ([4]; 85° C.): 3.15 h
- temperature at which it begins to evolve nitrogen [1]: 85 °C

SMILES: CC(C)(C#N)N=NC(C)(C)c1ccccc1 [Example XI, Alpha-(tert.-cumylazo)isobutyronitrile]
- temperature at which it begins to evolve nitrogen [1]: 55 °C

SMILES: CC(C)(C)N=NC(C)(C#N)C1CC1 (stereo not drawn) [Example XII, Alpha-tert-butylazo-alpha-cyclopropylpropionitrile]
- temperature at which it begins to evolve nitrogen [1]: 75 °C

SMILES: CC(C)(C)N=NC(N)=O [Example XIII, tert.-butylazoformamide]
- t 1/2 ([4]; 120° C., gas evolution technique, trichlorobenzene): 180 min
- t 1/2 ([4]; 130° C., gas evolution technique, trichlorobenzene): 52.2 min
- t 1/2 ([4]; 150° C., gas evolution technique, trichlorobenzene): 8.4 min

SMILES: CC(C)(C)N=NC(=O)C(C)(C)C [Example XIX, Pivaloyl tert.-butyldiimide]
- temperature at which it evolves nitrogen [1]: 35 °C

SMILES: CC(C)(C)N=NC(=O)c1ccccc1 [Example XX, Benzoyl tert.-butyldiimide]
- temperature at which it evolves nitrogen [1]: 25 °C

SMILES: CC(C)(C)N=NC1(C#N)CCCCC1 [IV, 1-tert.-butylazo-1-cyanocyclohexane]
- toxicity relative to IXA and its decomposition residue [7]: significantly less toxic

SMILES: CC(C)(C)N=NC(C)(C#N)C(C)(C)C (stereo not drawn) [IX, 2-tert.-butylazo-2-cyano-3,3-dimethylbutane]
- temperature at which it begins to evolve nitrogen [1]: 95 °C

SMILES: CC(C)OC(=O)N=NC(C)(C)c1ccccc1 [Isopropyl tert.-cumylazocarboxylate]
- temperature at which it evolves nitrogen [1]: 80 °C

SMILES: CC(C)CC(C)(N=NC(C)(C)C)OOC(C)(CC(C)C)N=NC(C)(C)C (stereo not drawn) [LVIII, Di[1-(t-butylazo)-1,3-dimethylbutyl] Peroxide]
- thermal stability / gas evolution, in words [1]: began to gas rapidly upon reaching room temperature

SMILES: CC(C)CC(C)(N=NC(C)(C)C)OOC(C)(C)CCC(C)(C)OOC(C)(CC(C)C)N=NC(C)(C)C (stereo not drawn) [LXV, 2,2,5,8,8,11,11,14,17,17,decamethyl-5,14-diisobutyl-Δ^3,15-3,4,15,16-tetraaza-6,7,12,13-tetraoxaoctadecadiene]
- temperature at which it evolves nitrogen [1]: 30 °C

SMILES: CC1CC(C)(C)CC(C#N)(N=NC(C)(C)C)C1 (stereo not drawn) [VIII, 1-tert.-butylazo-1-cyano-3,3,5-trimethylcyclohexane]
- temperature at which it begins to evolve nitrogen [1]: 100 °C

SMILES: COC(=O)CNC(=O)N=NC(C)(C)C [XVI, tert.-butylazo-N-carbmethoxymethylformamide]
- temperature at which it begins to evolve nitrogen [1]: 140 °C

SMILES: CC(C)(C)N=NC(=O)NCC(=O)O [XVII, tert.-butylazo-N-carboxymethylformamide]
- temperature at which it begins to evolve nitrogen [1]: 60 °C

SMILES: CC(C)(C)N=NC1=CCCCC1 [XXIII, 1(-tert.-butylazo)cyclohexene]
- temperature at which it evolves nitrogen [1]: 60 °C

SMILES: CC(C)(C)N=NC1(C(N)=O)CCCCC1 [XXIV, 1-tert. butylazo-1-carbamylcyclohexane]
- temperature at which it evolves nitrogen [1]: above 120 °C

SMILES: CC(C)(C)N=NC(C)(C)C(N)=O [XXV, 2-t-butylazo-2-carbamylpropane]
- temperature at which it evolves nitrogen [1]: above 120 °C
